Laboratory results: PMC9145755, “A Small Peptide Increases Drug Delivery in Human Melanoma Cells” (Pharmaceutics, 2022)
Where a SMILES comes first, the peptide text is derived from it. [ ]: non-standard residue; d: D form. Nle = CCCC[C@H](N)C(=O)O

How the values were obtained:
A375 melanoma cells [1] = assay: In vitro cytotoxicity, MTT colorimetric assay; assay type: cell-based, human
Description: Cells were seeded in a 96-well plate and allowed to adhere overnight prior to adding the compound [29]. After 72 h of treatment in serum-free media, an MTT solution was added to each well to give a final concentration of 0.5 mg/mL and was incubated for 3 h. Formed crystals were solubilized, and their absorbance was measured at 595 nm.

[2] = Serum stability (human serum, RP-HPLC); assay type: in vitro ADME; settings: human serum incubation, 37 °C, data not shown
Description: Human serum (250 µL) was thawed to room temperature and was added to DMEM media (650 µL). The mixture was kept in a 37 °C incubator to mimic human body temperature for 15 min. The peptide (100 µL, 1 mM) was dissolved (dispersed) in sterile water. The peptide solution was added to the pre-warmed human serum and DMEM mixture. The mixture was incubated at 37 °C. At different time points (0, 0.5, 1, 5, and 24 h) aliquots (100 µL) were removed and added to methanol (200 µL). Each time point sample was kept at 4 °C for 5 min, and then was centrifuged at 500× g for 15 min to separate serum proteins. The supernatant was injected into the RP-HPLC, and the major peaks were collected. The peak’s mass was determined using MALDI-TOF mass analysis. The serum stabilities of the D-aa KK-11 were determined by comparing the HPLC peaks (AUC) for the intact peptides at different time points.

[3] = test system: A375 human melanoma xenograft; assay: In vivo xenograft melanoma mouse model; settings: KK-11 alone, in vivo studies
Description: The study was carried out in compliance with the ARRIVE guidelines. All the animal studies and procedures were approved by the IACUC at Chapman University and conducted in compliance with the policies of Chapman University, in addition to those of federal, state, and local animal welfare authorities. Nude mice (NU/NU) were purchased from Charles River (Wilmington, MA, USA) and were housed and maintained in the Chapman University vivarium under pathogen-free conditions. A375 cells were suspended in cold Matrigel and injected subcutaneously into the flank of each mouse (1 × 10^6 cells per mouse) to establish tumors. The mice were treated by tail vein injections of 1× PBS, D-aa KK-11 alone (1.75 mg/kg), MAC-3-190 (5 mg/kg) alone, or D-aa KK-11 and MAC-3-190 co-treatment for 21 days. For the co-treatment, the solution of D-aa KK-11 and MAC-3-190 (1:11 molar ratio) was mixed gently and incubated at room temperature for 30 min before tail vein injection. The growth of the tumors was monitored three times a week and measured using digital Vernier calipers. The tumor volume (mm^3) was calculated as [Length × (Width^2)]/2 (in mm). The mice were sacrificed after 21 days per IACUC policy when the control group’s average tumor size reached 2000 mm^3. Tumor xenografts were removed and weighed.

[4] = test system: human melanoma cells (wm3211, Sk-mel-28, A375); assay: In vitro cellular uptake of FITC-labeled peptides by flow cytometry; assay type: cell-based; settings: FITC-labeled peptides 0.5 and 1 µM, A375, Sk-mel-28, wm3211, compared with FITC alone
Description: The peptide (FITC-labeled) concentration was determined using a Shimadzu BioSpec-nano Micro-volume UV-Vis spectrophotometer (Shimadzu, Kyoto, Japan). Human melanoma cells (wm3211, Sk-mel-28, and A375) were incubated with FITC or FITC-labeled peptides at final concentrations of 0.5 µM and 1 µM for 2 h. After thorough washing with cold 1× PBS, the melanoma cells in a single cell suspension were collected for flow cytometry analysis (BD FACSVerse, BD Biosciences, Franklin Lakes, NJ, USA). The mean fluorescence density of 10,000 cells was analyzed and compared to that of control cells, as described previously.

A375 melanoma cells [5] = assay: Fluorescence microscopy of peptide uptake; assay type: cell-based, human; settings: 0.5 µM, 30 min incubation, confocal microscopy, DAPI nuclei
Description: A375 melanoma cells were plated on coverslips and allowed to adhere overnight to 75% confluence, then incubated with 0.5 µM of FITC-KK-11 for 30 min at room temperature. After treatment, cells were washed three times in 1× PBS then fixed with 4% formaldehyde in 1× PBS for 15 min at room temperature. Fixed cells were then washed three times in 1× PBS for 5 min each, followed by curing in the dark with ProLong™ Gold Antifade Mountant with DAPI (P36935, Life Technologies Corporation, Eugene, OR, USA) for 1 h. Slides were visualized and recorded using the Nikon Eclipse Ti2-E confocal microscopy system (Nikon, Melville, NY, USA) using green and blue filters with 60× magnification.

[6] = test system: athymic nude mice bearing human melanoma A375 tumors; assay: In vivo and ex vivo imaging (biodistribution) in mice bearing A375 tumors; settings: 8 µg per mouse
Description: The study was carried out in compliance with Animal Research: Reporting of In Vivo Experiments (ARRIVE) guidelines. All the animal procedures were approved by the Institutional Animal Care and Use Committee (IACUC) at Chapman University and conducted in compliance with the policies of Chapman University, in addition to those of federal, state, and local animal welfare authorities. Male and female athymic nude mice (4–6 weeks old) were kept (5 in each cage) in a pathogen-free environment. Approximately 1 million human melanoma A375 cells (0.1 mL in normal saline), mixed with 0.1 mL cold Matrigel (#354248; Corning, Corning, NY, USA), were injected subcutaneously into the flank. The tumor size was measured with a caliper, and body weight was recorded once a week. When the tumor size reached approximately 800–1000 mm^3, as calculated using the following formula: [Length × (Width^2)]/2 (in mm), mice were processed for in vivo or ex vivo imaging.
For in vivo imaging, normal saline or VivoTag-KK-11 at a dose of 8 µg per mouse was injected into the mice via the tail vein (n = 2 for each time point). The animals were then scanned at different time intervals (0.5, 2, 6, and 24 h) using an IVIS Spectrum in vivo imaging system (PerkinElmer, Waltham, MA, USA). The mice were imaged for 0.5 s, 10 bin, level B at an emission wavelength of 688 ± 5 nm. Imaging was limited to no more than once a day and was conducted under continuously maintained isoflurane. Mice were maintained on alfalfa-free diets to minimize the background fluorescence. All the study animals survived through the in vivo imaging procedure.
For ex vivo imaging at defined time intervals (5, 15, 30 min, followed by 1, 1.5, 2, 3, 4, 6, 24, and 48 h) following fluorescence conjugate injection, animals were euthanized via carbon dioxide inhalation (n = 2 for each time point); tumor, liver, spleen, heart, lungs, brain, and kidneys were collected and briefly rinsed with saline. The organs were then imaged for 0.5 s, 10 bin, level B at an emission wavelength of 688 ± 5 nm using an IVIS Spectrum imaging system.

COc1cccc2c1C(=O)c1c(O)c3c(c(O)c1C2=O)C[C@@](O)(C(=O)CO)C[C@@H]3O[C@H]1C[C@H](N)[C@H](O)[C@H](C)O1 [DOX, doxorubicin, reference compound]
Cell viability, % of control (A375 melanoma cells [1]; A375, DOX 0.5 µM alone, 72 h, serum-free media, MTT): 62 % of control
Cell viability (cells survived), % of control (A375 melanoma cells [1]; A375, DOX 1 µM alone, 72 h, MTT): 24%

CCCC[C@H](NC(=O)[C@H](Cc1c[nH]c2ccccc12)NC(=O)[C@@H]1CCCN1C(=O)[C@@H](N)C(C)C)C(=O)N[C@@H](CCC(=O)O)C(=O)N1CCC[C@H]1C(=O)N[C@@H](C)C(=O)N[C@@H](Cc1ccc(O)cc1)C(=O)N[C@@H](CCC(N)=O)C(=O)N[C@@H](CCCNC(=N)N)C(=O)N[C@@H](Cc1ccccc1)C(=O)N[C@@H](CC(C)C)C(N)=O [KK-11] (H-VPW[Nle]EPAYQRFL-NH2)
Time to undetectable level of intact peptide in human serum [2]: ≤ 30 min
Enhancement of MAC-3-190 cytotoxicity by KK-11 co-treatment (A375 melanoma cells [1]; A375, KK-11 1 µM with MAC-3-190 at 25% IC50, 50% IC50, IC50 and 2× IC50, 72 h, MTT, vs MAC-3-190 alone): did not observe any significant enhancement of cytotoxicity
Effect of sequential KK-11 then DOX treatment on DOX cytotoxicity (A375 melanoma cells [1]; A375, pretreated with KK-11 for 4 h, washed away, then DOX 72 h, MTT): failed to produce any changes on DOX cytotoxicity
Cytotoxicity of peptide alone, in vitro (A375 melanoma cells [1]; KK-11 alone, in vitro studies): No cytotoxicity
Cytotoxicity of peptide alone, in vivo [3]: No cytotoxicity

FITC-Aβ-VPWXEPAYQRFL [FITC-KK-11, KK-11 labeled with FITC at the N-terminus via β-alanine spacer]
Uptake of FITC-labeled peptide by melanoma cells [4]: highest
Cellular localisation of FITC-labeled peptide (A375 melanoma cells [5]): present in the cytoplasm

VivoTag-Aβ-VPWxEPAYQrFL [VivoTag-KK-11, VivoTag 680 XL labeled D-amino acid analogue of KK-11]
Time post injection up to which fluorescence remained detectable in tumor xenografts, ex vivo imaging ([6]; IV tail vein, A375 xenograft nude mice, excised tumors, IVIS, n = 2 per time point): 24 h
Time after injection by which the peptide distributed to the tumor (and lungs, heart, spleen), ex vivo imaging ([6]; tail vein, A375 xenograft nude mice, IVIS, n = 2 per time point): ≤ 5 min
Brain penetration ([6]; tail vein, ex vivo organ imaging): no brain penetration was observed
Time after injection by which the peptide cleared from other organs ([6]; tail vein, ex vivo organ imaging (lungs, heart, spleen)): ≤ 6 h
Time after injection up to which the peptide was predominantly detected in kidneys ([6]; tail vein, ex vivo organ imaging, after 6 h): 48 h
